pEC50: −log10 of the molar value. Where a name gives a salt, the structure may show the parent alone.
Columns and labels:
human H4 = target: T1, human H4 (Homo sapiens, UniProt Q9H3N8); assay: In vitro histamine receptor cell-based assay (aequorin bioluminescence), H4 antagonism; conditions: CHO-K1 cells expressing human H4, aequorin and Gα16; histamine at EC80; read-out: H4 Antagonist EC50
T1 construct: host or cells: CHO-K1
Protocol: (§1) The cell-based assays utilize an aequorin dependent bioluminescence signal. Doubly-transfected, stable CHO-K1 cell lines expressing human H1 or H4, mitochondrion-targeted aequorin, and (H4 only) human G protein Gα16 are obtained from Perkin-Elmer. Cells are maintained in F12 (Ham's) growth medium, containing 10% (vol./vol.) fetal bovine serum, penicillin (100 IU/mL), streptomycin (0.1 mg/mL), zeocin (0.25 mg/mL) and geneticin (0.40 mg/mL). Cell media components are from Invitrogen, Inc. One day prior to assay, the growth medium is replaced with the same, excluding zeocin and geneticin.
(§2) For assay preparation, growth medium is aspirated, and cells are rinsed with calcium-free, magnesium-free phosphate-buffered saline, followed by two to three minute incubation in Versene (Invitrogen, Inc.) at 37° C. Assay medium (DMEM:F12 [50:50], phenol-red free, containing 1 mg/mL protease-free bovine serum albumin) is added to collect the released cells, which are then centrifuged. The cell pellet is re-suspended in assay medium, centrifuged once more, and re-suspended in assay medium to a final density of 5×10^6 cells/mL. Coelenterazine-h dye (500 μM in ethanol) is added to a final concentration of 5 μM, and mixed immediately. The conical tube containing the cells is then wrapped with foil to protect the light-sensitive dye. The cells are incubated for four hours further at room temperature (approximately 21° C.) with end-over-end rotation to keep them in suspension.
Just before assay, the dye-loaded cells are diluted to 0.75×10^6 cells/mL (H1 receptor) or 1.5×10^6 cells/mL (H4 receptor) with additional assay medium. Cells are dispensed to 1536 well micro-titer plates at 3 μL/well. To assay receptor antagonism, 60 nl of 100× concentration test compounds in 100% dimethyl sulfoxide (DMSO) are dispensed to the wells, one compound per well, by passive pin transfer, and the plates are incubated for 15 minutes at room temperature. […] The pipette dispenses 3 μL/well of agonist (histamine, at twice the final concentration, where final concentration is a previously determined EC80) in assay medium, with concurrent bioluminescence detection. Agonist activity of test compounds is excluded by separate assays that measure response to test compounds immediately, without added histamine agonist.
(§3) CCD image capture on the Lumilux includes a 5 second baseline read prior to agonist addition, and generally a 40 second read per plate after agonist addition. A decrease in bioluminescence signal (measured either as area-under-the-curve, or maximum signal amplitude minus minimum signal amplitude) correlates with receptor antagonism in a dose dependent manner. The negative control is DMSO lacking any test compound. For antagonist assays, the positive controls are diphenhydramine (2-Diphenylmethoxy-N,N-dimethylethylamine, 10 μM final concentration, H1 receptor) or JNJ7777120 (1-[(5-Chloro-1H-indol-2-yl)carbonyl]-4-methyl-piperazine, 10 μM final concentration, H4 receptor). Efficacy is measured as a percentage of positive control activity.

human H1 = target: T2, human H1 (Homo sapiens, UniProt P35367); assay: In vitro histamine receptor cell-based assay (aequorin bioluminescence), H1 antagonism; conditions: CHO-K1 cells expressing human H1 and aequorin; histamine at EC80; read-out: H1 Antagonist EC50
T2 construct: host or cells: CHO-K1
Protocol: as §1, §2
Just before assay, the dye-loaded cells are diluted to 0.75×10^6 cells/mL (H1 receptor) or 1.5×10^6 cells/mL (H4 receptor) with additional assay medium. Cells are dispensed to 1536 well micro-titer plates at 3 μL/well. To assay receptor antagonism, 60 nl of 100× concentration test compounds in 100% dimethyl sulfoxide (DMSO) are dispensed to the wells, one compound per well, by passive pin transfer, and the plates are incubated for 15 minutes at room temperature. Assay plates are then transferred to a Lumilux bioluminescence plate reader (Perkin-Elmer) equipped with an automated 1536 disposable tip pipette. The pipette dispenses 3 μL/well of agonist (histamine, at twice the final concentration, where final concentration is a previously determined EC80) in assay medium, with concurrent bioluminescence detection. Agonist activity of test compounds is excluded by separate assays that measure response to test compounds immediately, without added histamine agonist.
as §3

T2 sequence (P35367 whole entry): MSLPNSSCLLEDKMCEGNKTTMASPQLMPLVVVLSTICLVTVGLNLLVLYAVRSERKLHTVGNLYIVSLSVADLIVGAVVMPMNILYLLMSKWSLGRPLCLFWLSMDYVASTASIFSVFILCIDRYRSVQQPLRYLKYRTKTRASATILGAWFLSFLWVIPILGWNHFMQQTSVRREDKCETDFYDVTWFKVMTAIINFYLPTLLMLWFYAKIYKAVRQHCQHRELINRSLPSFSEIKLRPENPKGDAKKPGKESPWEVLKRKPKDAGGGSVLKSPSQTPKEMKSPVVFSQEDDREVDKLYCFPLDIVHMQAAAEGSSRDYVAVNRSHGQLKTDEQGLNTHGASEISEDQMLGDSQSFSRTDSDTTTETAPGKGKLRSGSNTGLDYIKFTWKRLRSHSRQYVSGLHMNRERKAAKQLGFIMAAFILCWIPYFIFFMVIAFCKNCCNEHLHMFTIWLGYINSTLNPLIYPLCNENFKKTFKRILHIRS

pEC50 (human H4)	pEC50 (human H1)	SMILES
> 5.00	< 5.00	Fc1c(C(F)(F)F)ccc2nc(N3CCNCC3)c3nnnn3c12 [Example 172, 9-fluoro-4-(piperazin-1-yl)-8-(trifluoromethyl)tetrazolo[1,5-a]quinoxaline]
> 5.00	> 5.00	Cn1cc2c(n1)c(N1CCNCC1)nc1ccc(C(F)(F)F)cc12 [Example 156, 2-Methyl-4-piperazinyl-8-(trifluoromethyl)pyrazolo[3,4-c]quinoline HCl salt]
> 5.00	< 5.00	Fc1cc2nc(N3CCNCC3)c3nnnn3c2cc1C(F)(F)F [Example 186, 7-fluoro-4-(piperazin-1-yl)-8-(trifluoromethyl)tetrazolo[1,5-a]quinoxaline]
> 5.00	> 5.00	Cc1nc2c3cc(Br)ccc3nc(N3CCN(C)CC3)n2n1 [Example 135, 9-bromo-2-methyl-5-(4-methylpiperazin-1-yl)-[1,2,4]triazolo[1,5-c]quinazoline]
> 5.00	< 5.00	C/C=C/c1ccc2nc(N3CCN(C)CC3)c3nncn3c2c1 [Example 174, (E)-4-(4-methylpiperazin-1-yl)-8-(prop-1-enyl)-[1,2,4]triazolo[4,3-a]quinoxaline]
> 5.00	> 5.00	CN1CCN(c2nc3ccc(Cl)cc3c3ccsc23)CC1 [Example 149, 8-Chloro-4-(4-methylpiperazin-1-yl)thieno[2,3-c]quinoline]
> 5.00	< 5.00	CN1CCN(c2nc3cc(F)c(C(F)(F)F)cc3n3nnnc23)CC1 [Example 187, 7-fluoro-4-(4-methylpiperazin-1-yl)-8-(trifluoromethyl)tetrazolo[1,5-a]quinoxaline]
> 5.00	< 5.00	CN1CCN(c2nc3ccc(C(F)(F)F)c(F)c3n3cnnc23)CC1 [Example 236, 9-fluoro-4-(4-methylpiperazin-1-yl)-8-(trifluoromethyl)-[1,2,4]triazolo[4,3-a]quinoxaline]
> 5.00	< 5.00	Clc1ccc2nc(N3CCNCC3)c3occc3c2c1 [Example 148, 8-Chloro-4-(piperazin-1-yl)furo[2,3-c]quinoline]
< 5.00	< 5.00	CN1CCN(c2nc3ccc(Cl)cc3c3nc(Cc4ccccc4)nn23)CC1 [Example 118, 2-Benzyl-9-chloro-5-(4-methylpiperazin-1-yl)-[1,2,4]triazolo[1,5-c]quinazoline]
> 5.00	< 5.00	Brc1ccc2c(c1)nc(N1CCNCC1)c1nnnn12 [Example 194, 7-bromo-4-(piperazin-1-yl)tetrazolo[1,5-a]quinoxaline hydrochloride]
> 5.00	< 5.00	CN1CCN(c2nc3cc(F)c(Cl)cc3n3nnnc23)CC1 [Example 189, 8-chloro-7-fluoro-4-(4-methylpiperazin-1-yl)tetrazolo[1,5-a]quinoxaline]
> 5.00	< 5.00	CN1CCN(c2nc3ccc(C(F)(F)F)cc3c3c[nH]nc23)CC1 [Example 157, 4-(4-Methylpiperazinyl)-8-(trifluoromethyl)pyrazolo[3,4-c]quinoline]
< 5.00	< 5.00	Cc1nc2c3ccc(F)cc3nc(N3CCNCC3)n2n1 [Example 108, 8-Fluoro-2-methyl-5-(piperazin-1-yl)-[1,2,4]triazolo[1,5-c]quinazoline]
> 5.00	< 5.00	CN1CCN(c2nc3cc(F)c(F)cc3n3nnnc23)CC1 [Example 190, 7,8-difluoro-4-(4-methylpiperazin-1-yl)tetrazolo[1,5-a]quinoxaline]

Second part, the compound before the results:

SMILES	pEC50 (human H4)	pEC50 (human H1)
CN(C)CCN(C)c1nc2ccc(Cl)cc2n2cnnc12 [Example 78, N^1-(8-chloro-[1,2,4]triazolo[4,3-a]quinoxalin-4-yl)-N^1,N^2,N^2-trimethylethane-1,2-diamine]	< 5.00	< 5.00
Cc1ccc2nc(N3CCNCC3)c3nncn3c2c1 [Example 22, 8-Methyl-4-(piperazin-1-yl)-[1,2,4]triazolo[4,3-a]quinoxaline]	> 5.00	< 5.00
CN1CCN(c2nc3ccc(OC(F)(F)F)cc3n3cnnc23)CC1 [Example 50, 4-(4-methylpiperazin-1-yl)-8-(trifluoromethoxy)-[1,2,4]triazolo[4,3-a]quinoxaline]	> 5.00	< 5.00
Clc1ccc2c(c1)N1CCN=C1C(N1CCNCC1)=N2 [Example 6, 8-Chloro-4-(piperazin-1-yl)-1,2-dihydroimidazo[1,2-a]quinoxaline]	> 5.00	< 5.00
CN1CCN(c2nc3cc(Cl)c(C(F)(F)F)cc3n3cnnc23)CC1 [Example 44, 7-Chloro-4-(4-methylpiperazin-1-yl)-8-(trifluoromethyl)-[1,2,4]triazolo[4,3-a]quinoxaline]	> 5.00	< 5.00
Cc1nc2c3ccc(Cl)cc3nc(N3CCNCC3)n2n1 [Example 106, 8-Chloro-2-methyl-5-(piperazin-1-yl)-[1,2,4]triazolo[1,5-c]quinazoline]	> 5.00	< 5.00
CC1(C)CN(c2nc3ccc(Cl)cc3n3cnnc23)CCN1 [Example 82, 8-chloro-4-(3,3-dimethylpiperazin-1-yl)-[1,2,4]triazolo[4,3-a]quinoxaline]	> 5.00	< 5.00
FC(F)(F)c1cc2nc(N3CCNCC3)c3nncn3c2cc1Cl [Example 47, 8-Chloro-4-(piperazin-1-yl)-7-(trifluoromethyl)-[1,2,4]triazolo[4,3-a]quinoxaline]	> 5.00	< 5.00
Cc1cc2nc(N3CCN(C)CC3)c3nncn3c2cc1F [Example 36, 8-fluoro-7-methyl-4-(4-methylpiperazin-1-yl)-[1,2,4]triazolo[4,3-a]quinoxaline]	> 5.00	< 5.00
Clc1ccc2nc(NCCN3CCOCC3)c3nncn3c2c1 [Example 71, 8-chloro-N-(2-morpholinoethyl)-[1,2,4]triazolo[4,3-a]quinoxalin-4-amine]	< 5.00	< 5.00
Clc1ccc2nc(C3CCNCC3)c3nncn3c2c1 [Example 3, 8-Chloro-4-(piperidin-4-yl)-[1,2,4]triazolo[4,3-a]quinoxaline]	< 5.00	< 5.00
C=Cc1ccc2nc(N3CCN(C)CC3)c3nncn3c2c1 [Example 88, 4-(4-methylpiperazin-1-yl)-8-vinyl-[1,2,4]triazolo[4,3-a]quinoxaline]	> 5.00	< 5.00
CN1CC[C@H](COc2nc3ccc(Cl)cc3n3cnnc23)C1 [Example 76, (S)-8-chloro-4-((1-methylpyrrolidin-3-yl)methoxy)-[1,2,4]triazolo[4,3-a]quinoxaline]	< 5.00	< 5.00
CN1CC2CN(c3nc4ccc(Cl)cc4n4cnnc34)CC2C1 (stereo not shown) [Example 62, 8-chloro-4-(5-methylhexahydropyrrolo[3,4-c]pyrrol-2(1H)-yl)-[1,2,4]triazolo[4,3-a]quinoxaline]	> 5.00	< 5.00
CN1CCN(c2nc3ccccc3n3cnnc23)CC1 [Example 58, 4-(4-methylpiperazin-1-yl)-[1,2,4]triazolo[4,3-a]quinoxaline]	> 5.00	< 5.00
FC(F)(F)c1ccc2nc(N3CCNCC3)c3nocc3c2c1 [Example 219, 4-piperazinyl-8-(trifluoromethyl)isoxazolo[3,4-c]quinoline]	–	< 5.00

— US20120065187A1 (ALCON RESEARCH, LTD, priority 2008, published 2012)
